Measured values from patent US6607885B1, “Method for high-density microarray medicated gene expression profiling” (priority 1999, dated 2003).

Legend:
Format in all cases: cell-based, Escherichia coli
E. coli DM803 (lexAind) = test: MMC exposure, gene expression profile of DM803 (lexAind); conditions: MMC for 40 min
Experimental: (§1) Strains E. coli strain, MG1655, was used to determine the gene expression profile of E. coli in response to a MMC challenge. Two isogenic E. coli strains (Mount et al, J. Bacteriol. 112:886-893 (1972)), DM800 (lexA^+), used as control displaying a normal response to DNA damage, and DM803 (lexA^ind), a strain unable to mount the predominant “SOS” response to DNA damage, were compared using comprehensive gene expression profiling.
(§2) MMC experiment MG1655 cells were grown in LB overnight with aeration. The overnight cultures were diluted 100 fold in LB to final volume of 500 mL and grown at 37° C. to exponential phase. 200 mL of culture was treated with MMC to the final concentration of 250 ng/mL. Another 200 mL of culture were mock treated without MMC for comparison. Cells were harvested at 15 min and 40 min for MG1655 strain. With DM800 and DM803 stains, cells, cultured in an identical manner, were harvested after 40 min exposure. RNA was isolated and gene expression profile was analyzed as shown in Examples 1 and 2.

E. coli strain MG1655 = test: MMC exposure, gene expression profile of MG1655
Experimental: as §1, §2

E. coli DM800 (lexA+) = test: MMC exposure, gene expression profile of DM800 (lexA+); conditions: MMC for 40 min
Experimental: as §1, §2

E. coli MG1655 = test: IPTG induction, micro-array gene expression profiling
Experimental: E. coli MG1655 was cultured with aeration in either the minimal medium, M9 (Miller, J. H., Experiments in Molecular Genetics, Cold Spring Harbor (1972)), supplemented with 0.4% glucose or in the rich medium, LB (Miller, J. H., Experiments in Molecular Genetics, Cold Spring Harbor (1972)), at 37° C. The overnight culture was diluted 250 fold into fresh medium and aerated by shaking at 37° C. Samples of the minimal medium culture were harvested at A600=0.40 (exponential phase) and 1.6 (transition to stationary phase) prior to RNA isolation. An IPTG induction (Miller, J. H., Experiments in Molecular Genetics, Cold Spring Harbor (1972)) was performed to examine the specificity with which it effects gene expression. A culture grown overnight in LB at 37° C. was diluted 250 fold into fresh LB and aerated at 37° C. When the culture achieved an appropriate density (A600=0.40), it was split. To one portion was added IPTG to a final concentration of 1 mM; the untreated sample served as a control. Incubation of both samples was continued with aeration at 37° C. for another 15 min (A600=0.45 for both cultures) before RNA isolation was initiated.
RNA Isolation. An equivalent volume of shaved ice was added to 50 mL samples which were pelleted immediately in a refrigerated centrifuge by spinning at 10,410×g for 2 min. Each resultant pellet was resuspended in a mixture containing 100 μL of Tris HCl (10 mM, pH 8.0) and 350 μL of β-mercaptoethanol supplemented RLT buffer [Qiagen RNeasy Mini Kit, Valencia, Calif.]. The cell suspension was added to a chilled 2 mL screwed-capped microfuge tube containing 100 μL of 0.1 mm zirconia/silica beads (Biospec Product Inc., Bartlesville, Okla.). The cells were broken by agitation at room temperature for 25 sec with a Mini-Beadbeater™ (Biospec Products Inc., Bartlesville, Okla.). Debris was pelleted by centrifugation for 3 min at 16,000×g and 4° C.; the resultant supernatant was mixed with 250 μL of ethanol. This mixture was loaded onto a column from the Qiagen RNeasy Mini Kit. RNA isolation was completed using the protocol supplied with this kit. Incubation for 1 hr. at 37° C. in 40 mM Tris pH 8.0, 10 mM NaCl, 6 mM MgCl2 with RNase free RQ1 DNase (1 unit/μL, Promega, Madison, Wis.) digested any genomic DNA contaminating the RNA preparation. The digestion products were purified by a second passage through the RNeasy protocol (Qiagen, Valencia, Calif.). The product was eluted from the column in 50 μL RNAse-free water prior to determining sample concentration by an A260 reading. RNA preparations were stored frozen at either −20 or −80° C.
Synthesis of fluorescent cDNA from total RNA. Six microgram of RNA template and 12 μg of random hexamer primers (Operon Technologies, Inc., Alameda, Calif.) were diluted with double distilled (dd) water to a volume of 22 μL. Annealing was accomplished by incubation at 70° C. for 10 min followed by 10 min at room temperature. In order were added: 8 μL of 5×SuperScript II reaction buffer (Life Technologies, Inc., Gaithersberg, Md.), 4 μL of 0.1 M DTT, 2 μL of the dNTP mix (2 mM dATP, 2 mM dGTP, 2 mM TTP, 1 mM dCTP), 2 μL of 0.5 mM Cy3- or Cy5-dCTP (Amersham Pharmacia Biotech, Arlington Heights, Ill.), and 2 μL of SuperScript II reverse transcriptase ([…], Life Technologies Inc., Gaithersberg, Md.). DNA synthesis proceeded at 42° C. for 2.5 hr. before the reaction was terminated by heating at 94° C. for 5 min. Alkaline hydrolysis of the RNA templates was achieved by adding 2 μL of 5M NaOH followed by incubation at 37° C. for 10 min. Hydrolysis was terminated by the sequential addition of 3 μL of 5M HCl and 5 μL of 1M Tris-HCl, pH 6.8. The labeled cDNA was purified with a PCR purification kit (Qiagen, Valencia, Calif.), dried in a speed vacuum and stored at −20° C. Labeling efficiency was monitored using either A550, for Cy3 incorporation, or A650, for Cy5 labeling, to A260 ratios.
Hybridization and washing. […]

Row | SMILES | induction of SOS responsive genes, including lexA (E. coli DM803 (lexAind)) | induction of dicB, dicC, sdiA, cheW, motA, cycA, fadL, chaC, codB and btuC (E. coli DM803 (lexAind)) | number of genes with expression elevated greater than 2 fold relative to the control (E. coli strain MG1655; 40 min exposure, MMC 250 ng/mL) | number of stress response genes induced more than 2 fold (E. coli strain MG1655; 40 min exposure, recN, dinI, sulA, lexA, recA, uvrA, dinD, priC, umuC, mioC, uvrB, ruvA, xseA) | SOS response (E. coli strain MG1655; cells harvested at 15 min post exposure, MMC 250 ng/mL) | induction of SOS responsive genes (E. coli DM800 (lexA+)) | induction of dicB, dicC, sdiA, cheW, motA, cycA, fadL, chaC, codB and btuC (E. coli DM800 (lexA+)) | number of genes whose expression increased by a factor of more than 2 (E. coli MG1655; 1 mM IPTG for 15 min) | two-fold or greater repression of arrayed genes (E. coli MG1655; 1 mM IPTG for 15 min) | fold IPTG induction of b0956/ycbG (E. coli MG1655; gene b0956/ycbG (hydrogenase?), 1 mM IPTG, 15 min, LB, 37° C.) | fold IPTG induction of b1783/yeaG (E. coli MG1655; gene b1783/yeaG, 1 mM IPTG, 15 min, LB, 37° C.) | fold IPTG induction of b2324 (E. coli MG1655; gene b2324 (peptidase?), 1 mM IPTG, 15 min, LB, 37° C.) | fold IPTG induction of lacA (E. coli MG1655; gene lacA (thiogalactoside acyltransferase), 1 mM IPTG, 15 min, LB, 37° C.) | fold IPTG induction of lacY (E. coli MG1655; gene lacY (galactoside permease), 1 mM IPTG, 15 min, LB, 37° C.) | fold IPTG induction of lacZ (E. coli MG1655; gene lacZ (galactosidase), 1 mM IPTG, 15 min, LB, 37° C.) | fold IPTG induction of melA (E. coli MG1655; gene melA (galactosidase), 1 mM IPTG, 15 min, LB, 37° C.) | fold IPTG induction of uxaA (E. coli MG1655; gene uxaA (altronate hydrolase), 1 mM IPTG, 15 min, LB, 37° C.)
1 | CO[C@@]12[C@H](COC(N)=O)C3=C(C(=O)C(C)=C(N)C3=O)N1C[C@@H]1N[C@@H]12 [MMC, mitomycin C] | not induced | greater than 2 fold | 40 genes | 13 genes | very little | greater than 2 fold | not induced |  |  |  |  |  |  |  |  |  | 
2 | CC(C)S[C@@H]1O[C@H](CO)[C@H](O)[C@H](O)[C@H]1O [IPTG, isopropylthiogalactoside] |  |  |  |  |  |  |  | 8 genes | not observed | 2.5 fold | 3.6 fold | 5.3 fold | 36 fold | 14 fold | 29 fold | 2.9 fold | 4.0 fold
